Experimental data reported in US20080261895A1 (Wyeth, priority 2006, published 2008).
Several values for one entry are separate records, joined by “and”; a condition that tells them apart may be missing. Identical values can stand only once.

Columns and labels:
[1] = Urinary excretion and metabolite profile by radiochromatography, dogs; format: in vivo, beagle dogs; details: urine 8-24 hours post-dose, single oral 30 mg/kg, mean of 2 analyses, 30 mg/kg
Description: (§1) For each dog, urine and feces were collected separately, with urine collected on dry ice and feces collected at room temperature. Collections were from 0-8 and 8-24 hours for urine and 0-24 hours for feces. Urine and fecal samples were shipped on dry ice to Wyeth Research, Biotransformation Division (Collegeville, Pa.) for analysis. Fecal samples were homogenized in approximately five volumes (v/w) of water. Aliquots of approximately 0.2 grams of the homogenate were placed into combusto-cones, weighed and allowed to air dry. These samples were then oxidized and radioactivity content determined. The remaining urine samples and fecal homogenates were stored at −70° C. until metabolite analysis. Blood samples and fecal homogenates were oxidized in a Model 307 Tri-Carb sample oxidizer, using Carbosorb® E (6 mL) as trapping agent and PermaFluor® E^+ (10 mL) as scintillant. The background reading (average of control blood or fecal samples) was subtracted from each sample reading. Aliquots of urine and plasma were analyzed directly following the addition of 10 mL of Ultima Gold™ scintillation fluid.
Urine samples collected between 8 and 24 hours post-dose were analyzed for metabolite profiles. Aliquots of urine were centrifuged at 14000 rpm in an Eppendorf Model 5415C centrifuge for 10 minutes. The supernatant was transferred to a fresh tube and analyzed for radioactivity content and by HPLC for metabolite profiling. Selected samples were also analyzed by LC/MS to characterize the radioactive peaks.
(§2) Chromatographic analyses were performed with a Waters Alliance model 2690 HPLC system (Waters Corp., Milford, Mass.). It was equipped with a built-in autosampler and was in-line with a model 2487 tunable UV detector, set to monitor 225 nm, and a FloOne β Model 515 radioactivity flow detector (Perkin Elmer) with a 250 μL LQTR flow cell. The flow rate of Ultima Flow M scintillation fluid was 3 mL/min, providing a mixing ratio of scintillation cocktail to mobile phase of 3:1. Separation of the metabolite peaks was accomplished on a Phenomenex Luna C18(2) column, 250×4.6 mm, 5 micron (Phenomenex, Torrance, Calif.), using a linear gradient of two mobile phases, A and B. Mobile phase A was 10 mM ammonium acetate, pH 5.5, and mobile phase B was acetonitrile. The flow rate was 1 mL/min.

[2] = Plasma metabolite profile by radiochromatography, rats; format: in vivo, Sprague Dawley rats; details: single oral 20 mg/kg DVS
Description: Plasma samples collected at 1, 4 and 8 hours post-dose were analyzed for metabolite profiles. Aliquots of 0.5 mL plasma were mixed with an equal volume of acetonitrile, placed on ice for approximately 10 minutes, and then centrifuged at 3500 rpm and 4° C. in a Sorvall Super 21 centrifuge for 10 minutes. The supernatant fluid was transferred to a clean tube. The supernatant was analyzed for radioactivity. The supernatant was concentrated under a stream of nitrogen in a Turbo Vap (Zymark, Hopinkton, Mass.) to remove the acetonitrile. An aliquot of the aqueous residue was analyzed by HPLC for metabolite profiling. Selected samples were also analyzed by LC/MS to characterize the radioactive peaks.
as §2, with “β Model 525 radioactivity flow” for “β Model 515 radioactivity flow”, “fluid was 1 mL/min, providing” for “fluid was 3 mL/min, providing”, “phase of 5:1. Separation of” for “phase of 3:1. Separation of”, “C18(2) column, 150×2.0 mm, 5” for “C18(2) column, 250×4.6 mm, 5”, “acetate, pH 6.0, and mobile” for “acetate, pH 5.5, and mobile”, “rate was 0.2 mL/min.” for “rate was 1 mL/min.”

[3] = Urinary excretion and metabolite profile by radiochromatography, rats; format: in vivo, Sprague Dawley rats; details: for Compounds Detected by Radiochromatography in urine (Mean ± S.D., n = 3), percent of total peaks: single oral 20 mg/kg
Description: (§3) Urine and feces were collected separately on dry ice from three animals per sex. Collections were from 0-8 and 8-24 hours for male rats and 0-8 hours for female rats. Fecal samples were homogenized in approximately five volumes (v/w) of water. Aliquots of approximately 0.4 grams of the homogenate were placed into combusto-cones, weighed and allowed to air dry. These samples were then oxidized. The remaining urine samples and fecal homogenates were stored at −70° C. until metabolite analysis.
All urine samples were analyzed for metabolite profiles. Aliquots of 0.5 mL urine were centrifuged at 3500 rpm and 4° C. in a Sorvall Super 21 centrifuge for 10 minutes. The supernatant was transferred to a fresh tube and analyzed for radioactivity content and by HPLC for profiling. Selected samples were also analyzed by LC/MS to characterize the radioactive peaks.
as §2, with “β Model 525 radioactivity flow” for “β Model 515 radioactivity flow”, “fluid was 1 mL/min, providing” for “fluid was 3 mL/min, providing”, “phase of 5:1. Separation of” for “phase of 3:1. Separation of”, “C18(2) column, 150×2.0 mm, 5” for “C18(2) column, 250×4.6 mm, 5”, “acetate, pH 6.0, and mobile” for “acetate, pH 5.5, and mobile”, “rate was 0.2 mL/min.” for “rate was 1 mL/min.”

[4] = Plasma metabolite profile by radiochromatography, dogs; format: in vivo, beagle dogs; details: single oral 30 mg/kg DVS
Description: Plasma samples collected at 1 and 4 hours post-dose were analyzed for metabolite profiles. Aliquots of 1 mL plasma were mixed with an equal volume of acetonitrile, placed on ice for at least 10 minutes, and then centrifuged at 14000 rpm in an Eppendorf Model 5415C centrifuge for 10 minutes. The supernatant fluid was transferred to a clean tube. The supernatant was analyzed for radioactivity. The supernatant was concentrated under a stream of nitrogen in a Turbo Vap (Zymark, Hopinkton, Mass.) to remove the acetonitrile. An aliquot of the aqueous residue was analyzed by HPLC for profiling. Selected samples were also analyzed by LC/MS to characterize the radioactive peaks.
Chromatographic analyses were performed with a Waters Alliance model 2690 HPLC system (Waters Corp., Milford, Mass.). It was equipped with a built-in autosampler and was in-line with a model 2487 tunable UV detector, set to monitor 225 nm, and a FloOne β Model 515 radioactivity flow detector (Perkin Elmer) with a 250 μL LQTR flow cell. The flow rate of Ultima Flow M scintillation fluid was 3 mL/min, providing a mixing ratio of scintillation cocktail to mobile phase of 3:1. […]

[5] = Metabolites of DVS observed by LC/MS in dog plasma, urine and feces; format: in vivo, beagle dogs; details: P: plasma, U: urine, F: feces
Description: An Agilent Model 1100 HPLC system (Agilent Technologies, Wilmington, Del.) including an autosampler and diode array UV detector was used for LC/MS analysis. The UV detector was set to monitor 200 to 400 nm. Separations were accomplished on a 5 micron Phenomenex Luna C18(2) column, 150×2 mm (Phenomenex). The column temperature was 25° C. For selected LC/MS analyses, radiochromatograms were acquired using a β-RAM model 3 radioactivity flow detector (IN/US Systems Inc., Tampa, Fla.) equipped with a solid scintillation flow cell.
The mass spectrometers used for metabolite characterization were a Micromass Q-TOF-2 quadrupole time-of-flight hybrid mass spectrometer (Micromass, Inc., Beverly, Mass.) and a Finnigan LCQ Deca ion trap mass spectrometer (ThermoFinnigan, San Jose, Calif.). The mass spectrometer was equipped with an electrospray ionization (ESI) interface and operated in the positive ionization mode.

[6] = Metabolites of DVS observed by LC/MS in rat plasma, urine and feces; format: in vivo, Sprague Dawley rats; details: P: plasma, U: urine, F: feces
Description: An Agilent Model 1100 HPLC system (Agilent Technologies, Wilmington, Del.) including an autosampler and diode array UV detector was used for LC/MS analysis. The UV detector was set to monitor 200 to 400 nm. Separations were accomplished on a 5 micron Phenomenex Luna C18(2) column, 150×2 mm (Phenomenex). The column temperature was 25° C. The mobile phases and gradient program were as follows.
The mass spectrometer used for metabolite characterization was a Micromass Q-TOF-2 quadrupole time-of-flight hybrid mass spectrometer (Micromass, Inc., Beverly, Mass.). The mass spectrometer was equipped with an electrospray ionization (ESI) interface and operated in the positive ionization mode.

[7] = Fecal excretion and metabolite profile by radiochromatography, dogs; format: in vivo, beagle dogs; details: single oral 30 mg/kg; for Compounds Detected by Radiochromatography in feces, percent of total peaks, individual dogs: feces 0-24 hours post dose (dog 7 until 48 hours), average of 2 analyses; for Compounds Detected by Radiochromatography in feces, percent of total peaks, Mean ± S.D.: feces 0-24 hours post dose
Description: as §1
Fecal homogenates collected up to 24 hours post-dose were analyzed for metabolite profiles. Aliquots of approximately 2 grams of fecal homogenate were transferred to a fresh tube, an equal volume of acetonitrile (v/w) was added, and the tube vortexed. Samples were then centrifuged at 14000 rpm in an Eppendorf Model 5415C centrifuge for 10 minutes. The supernatant was transferred to a clean tube. The residue was re-suspended with 1 mL acetonitrile and centrifuged as described above. The resulting supernatant was combined with the original supernatant and analyzed for radioactivity. The supernatants were then concentrated under a stream of nitrogen in a Turbo Vap to remove the acetonitrile. An aliquot of the aqueous residue was analyzed by HPLC for profiling. Selected samples were also analyzed by LC/MS to characterize the radioactive peaks.
as §2

[8] = Fecal excretion and metabolite profile by radiochromatography, rats; format: in vivo, Sprague Dawley rats; details: male rats, feces 8-24 hours post-dose, single oral 20 mg/kg, 20 mg/kg
Description: as §3
Fecal homogenates collected from male rats between 8 and 24 hours post-dose were analyzed for metabolite profiles. Aliquots of approximately 1 gram of fecal homogenate were centrifuged at 3500 rpm and 4° C. in a Sorvall Super 21 centrifuge for 10 minutes. The supernatant was transferred to a clean tube. The residue was re-suspended with 1 mL of water:acetonitrile (1:1, v:v) and centrifuged as described above. The resulting supernatant was combined with the original supernatant and the residue re-suspended with 1 mL of acetonitrile. The suspension was centrifuged as described above, and the supernatants were combined and analyzed for radioactivity. The supernatants were then concentrated under a stream of nitrogen in a Turbo Vap to remove the acetonitrile. An aliquot of the aqueous residue was analyzed by HPLC for profiling. Selected samples were also analyzed by LC/MS to characterize the radioactive peaks.
as §2, with “β Model 525 radioactivity flow” for “β Model 515 radioactivity flow”, “fluid was 1 mL/min, providing” for “fluid was 3 mL/min, providing”, “phase of 5:1. Separation of” for “phase of 3:1. Separation of”, “C18(2) column, 150×2.0 mm, 5” for “C18(2) column, 250×4.6 mm, 5”, “acetate, pH 6.0, and mobile” for “acetate, pH 5.5, and mobile”, “rate was 0.2 mL/min.” for “rate was 1 mL/min.”

Structure (SMILES)	Compounds Detected by Radiochromatography in urine, percent of total peaks, individual dogs [1]	Matrix (metabolite observed by LC/MS) [5]	Matrix (metabolite observed by LC/MS) [6]	Compounds Detected by Radiochromatography in feces, percent of total peaks, individual dogs [7]	Compounds Detected by Radiochromatography in feces, percent of total peaks, Mean ± S.D. [8]	Compounds Detected by Radiochromatography in feces, percent of total peaks, Mean ± S.D. [7]	other results
CN(C)CC(c1ccc(O[C@@H]2O[C@H](C(=O)O)[C@@H](O)[C@H](O)[C@H]2O)cc1)C1(O)CCCCC1 (some centres unmarked) [Metabolite M7, O-desmethylvenlafaxine O-glucuronide]	84.1% and 83.5% and 83.9% and 86.8%	P, U, F	P, U, F				% of the radioactivity in plasma ([2]; female rats, 1 hour post-dose): 86.6%; % of the radioactivity in plasma ([2]; male rats, 1 hour post-dose): 88.7%; % of the radioactivity in plasma ([2]; male rats, 4 hours post-dose): 93.6%; % of the radioactivity detected in urine ([3]; all urine samples at each time point): approximately 75%; Compounds Detected by Radiochromatography in urine (Mean ± S.D., n = 3), percent of total peaks ([3]; 0-8 hr, female): 74.0 ± 3.3%; Compounds Detected by Radiochromatography in urine (Mean ± S.D., n = 3), percent of total peaks ([3]; 0-8 hr, male): 76.5 ± 1.9%; Compounds Detected by Radiochromatography in urine (Mean ± S.D., n = 3), percent of total peaks ([3]; 8-24 hr, male): 77.2 ± 1.2%; % of the radioactivity detected in plasma ([4]; 1 hour post-dose): 77.5%; % of the radioactivity detected in plasma ([4]; 4 hours post-dose): 96.4%
CN(C)CC(O)(c1ccc(O)cc1)C1(O)CCCCC1 (centres unmarked) [Metabolite M9, Hydroxy DV]		U, F					
CNCC(c1ccc(O)cc1)C1(O)CCCCC1 (centres unmarked) [Metabolite M10, N,O-didesmethylvenlafaxine]		P, U, F	P, U, F	9.8% and 17.7% and 8.6% and 11.2%	34% and 33.6 ± 0.9%		Compounds Detected by Radiochromatography in feces, percent of total peaks, individual rats [8]: 34.5% and 32.6% and 33.6%

Further lines, with some results ahead:

Compounds Detected by Radiochromatography in urine, percent of total peaks, individual dogs [1]	Matrix (metabolite observed by LC/MS) [5]	Matrix (metabolite observed by LC/MS) [6]	Compounds Detected by Radiochromatography in feces, percent of total peaks, individual dogs [7]	Compounds Detected by Radiochromatography in feces, percent of total peaks, Mean ± S.D. [8]	Compounds Detected by Radiochromatography in feces, percent of total peaks, Mean ± S.D. [7]	Structure (SMILES)	other results
3.3% and 3.5% and 4.3% and 3.6%	P, U	P, U				CNCC(c1ccc(O[C@@H]2O[C@H](C(=O)O)[C@@H](O)[C@H](O)[C@H]2O)cc1)C1(O)CCCCC1 (some centres unmarked) [Metabolite M13, N,O-didesmethylvenlafaxine O-glucuronide]	
	U, F		4.4% and 16.1% and 0.0% (2×)		5.1 ± 7.0%	NCC(c1ccc(O)cc1)C1(O)CCCCC1 (centres unmarked) [Metabolite M14, N,N,O-tridesmethylvenlafaxine]	
	P, U, F	P, U, F^b	7.3% and 15.7% and 5.7% and 0.0%	7%	approximately 7%	C[N+](C)([O-])CC(c1ccc(O)cc1)C1(O)CCCCC1 (centres unmarked) [N-oxide DV]	Compounds Detected by Radiochromatography in feces, percent of total peaks, Mean ± S.D. ([7]; listed as N-Oxide): 7.2 ± 6.1%; Compounds Detected by Radiochromatography in feces, percent of total peaks, Mean ± S.D. ([8]; listed as N-Oxide): 7.1 ± 1.3%; Compounds Detected by Radiochromatography in feces, percent of total peaks, individual rats ([8]; listed as N-Oxide): 6.0% and 6.7% and 8.5%
